Laboratory results as given in publication PMC3537229 (European journal of pharmacology, 2012).
Where two headings read alike, the source gives them in different places.

Columns and labels:
NET [1] = molecular target: T1, NET (Rattus norvegicus, UniProt Q63380); details: percentage of maximal release response; ref Baumann et al. (2012b); cited from earlier work
SERT [2] = molecular target: T2, SERT (Rattus norvegicus, UniProt P31652); details: percentage of maximal release response; ref Baumann et al. (2012b); cited from earlier work
mice [3] = details: mice, 1, 3 or 10 mg/kg, i.p.; ref Robinson et al. (2012); cited from earlier work
NET [4] = molecular target: T1, NET; assay: Release of [3H]MPP+ via NET in rat brain synaptosomes; format: biochemical
DAT [5] = molecular target: T3, DAT (Rattus norvegicus, UniProt P23977); assay: Inhibition of [3H]dopamine uptake in rat brain synaptosomes; format: biochemical
SERT [6] = molecular target: T2, SERT; assay: Inhibition of [3H]serotonin uptake in rat brain synaptosomes; format: biochemical
NET [7] = molecular target: T1, NET; assay: Inhibition of [3H]norepinephrine uptake in rat brain synaptosomes; format: biochemical
DAT [8] = molecular target: T3, DAT; assay: Release of [3H]MPP+ via DAT in rat brain synaptosomes; format: biochemical
SERT [9] = molecular target: T2, SERT; assay: Release of [3H]serotonin via SERT in rat brain synaptosomes; format: biochemical
rats [10] = details: cited from earlier work
mice [11] = details: 30 mg/kg, i.p.; ref Lisek et al., 2012; cited from earlier work
mice [12] = details: ref Angoa-Perez et al., 2012, Lopez-Arnau et al., Marusich et al.; cited from earlier work
DAT [13] = molecular target: T3, DAT; details: percentage of maximal release response; ref Baumann et al. (2012b); cited from earlier work
[14] = ref Kehr et al., 2011; cited from earlier work
[15] = tested on: extracellular levels of dopamine and serotonin in rat nucleus accumbens; details: i.v. injection, 0.3 or 1.0 mg/kg; ref Baumann et al., 2012a; cited from earlier work
rats [16] = details: 30 mg/kg, i.p.; ref Lisek et al., 2012; cited from earlier work

T1 sequence (Q63380 1-617): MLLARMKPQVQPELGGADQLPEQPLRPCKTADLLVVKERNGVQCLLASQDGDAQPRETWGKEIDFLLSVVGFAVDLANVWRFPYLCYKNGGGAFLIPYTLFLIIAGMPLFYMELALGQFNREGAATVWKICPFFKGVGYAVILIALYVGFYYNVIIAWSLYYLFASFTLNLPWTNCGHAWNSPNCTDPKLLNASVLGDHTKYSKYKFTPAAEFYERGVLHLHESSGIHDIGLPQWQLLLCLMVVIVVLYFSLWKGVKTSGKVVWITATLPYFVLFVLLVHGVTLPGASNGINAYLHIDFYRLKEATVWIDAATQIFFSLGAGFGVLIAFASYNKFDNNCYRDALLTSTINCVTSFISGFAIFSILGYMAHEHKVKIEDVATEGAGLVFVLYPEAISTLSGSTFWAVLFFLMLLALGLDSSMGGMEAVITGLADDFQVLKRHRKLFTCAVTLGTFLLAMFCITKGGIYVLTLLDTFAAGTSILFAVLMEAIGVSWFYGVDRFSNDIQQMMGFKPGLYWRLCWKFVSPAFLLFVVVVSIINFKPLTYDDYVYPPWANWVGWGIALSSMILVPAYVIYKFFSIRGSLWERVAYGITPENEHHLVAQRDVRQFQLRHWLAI
T3 sequence (P23977 whole entry): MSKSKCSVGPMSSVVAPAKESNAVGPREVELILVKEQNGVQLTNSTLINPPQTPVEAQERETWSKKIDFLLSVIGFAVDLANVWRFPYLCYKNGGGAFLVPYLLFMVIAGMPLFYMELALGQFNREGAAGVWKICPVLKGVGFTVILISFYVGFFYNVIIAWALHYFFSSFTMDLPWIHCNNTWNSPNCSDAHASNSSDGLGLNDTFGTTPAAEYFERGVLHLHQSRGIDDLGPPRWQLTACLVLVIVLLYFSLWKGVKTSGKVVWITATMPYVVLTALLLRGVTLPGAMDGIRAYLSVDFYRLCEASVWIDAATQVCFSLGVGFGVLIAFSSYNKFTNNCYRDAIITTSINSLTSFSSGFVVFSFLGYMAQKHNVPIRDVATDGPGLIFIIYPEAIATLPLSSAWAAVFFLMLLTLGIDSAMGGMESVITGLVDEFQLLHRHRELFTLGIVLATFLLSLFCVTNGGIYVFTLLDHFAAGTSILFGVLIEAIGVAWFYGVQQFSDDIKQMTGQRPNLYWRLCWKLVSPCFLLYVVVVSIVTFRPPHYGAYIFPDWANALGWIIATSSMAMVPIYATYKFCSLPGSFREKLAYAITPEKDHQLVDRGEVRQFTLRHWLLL
T2 sequence (P31652 whole entry): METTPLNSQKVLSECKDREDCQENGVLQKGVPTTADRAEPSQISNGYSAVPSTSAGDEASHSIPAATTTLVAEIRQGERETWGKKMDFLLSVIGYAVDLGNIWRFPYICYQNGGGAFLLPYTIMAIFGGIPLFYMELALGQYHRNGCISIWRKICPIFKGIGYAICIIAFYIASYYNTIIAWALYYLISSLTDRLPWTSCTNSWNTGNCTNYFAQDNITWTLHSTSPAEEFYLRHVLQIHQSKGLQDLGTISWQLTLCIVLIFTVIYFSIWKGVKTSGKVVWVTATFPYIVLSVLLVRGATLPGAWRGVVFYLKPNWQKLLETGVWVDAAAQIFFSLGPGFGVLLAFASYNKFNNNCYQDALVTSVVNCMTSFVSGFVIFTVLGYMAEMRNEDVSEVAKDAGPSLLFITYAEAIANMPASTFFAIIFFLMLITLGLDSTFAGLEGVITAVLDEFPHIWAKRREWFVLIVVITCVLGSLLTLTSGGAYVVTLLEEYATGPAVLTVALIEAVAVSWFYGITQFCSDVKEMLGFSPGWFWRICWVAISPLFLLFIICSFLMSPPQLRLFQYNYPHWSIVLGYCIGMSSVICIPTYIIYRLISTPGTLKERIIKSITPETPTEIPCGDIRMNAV

SMILES: CC(N)Cc1ccccc1 (centres unmarked) [Amphetamine]
- NET release Emax % (NET [1]): 92 ± 1%
- SERT release Emax % (SERT [2]): 97 ± 2%

SMILES: COC(=O)[C@H]1[C@@H](OC(=O)c2ccccc2)C[C@@H]2CC[C@H]1N2C [Cocaine]
- Brain stimulation reward thresholds (mice [3]): this effect is mimicked by identical doses of cocaine

SMILES: CNC(C)Cc1ccc2c(c1)OCO2 (centres unmarked) [MDMA, 3,4-methylenedioxymethamphetamine]
- EC50 (NET [4]): 53 ± 7 nM
- Emax (NET [4]; read-out: NET release Emax %): 95%
- IC50 (DAT [5]): 1010 ± 39 nM
- IC50 (SERT [6]): 125 ± 11 nM
- IC50 (NET [7]): 450 ± 30 nM
- EC50 (DAT [8]): 42 ± 2 nM
- Emax (DAT [8]; read-out: DAT release Emax %): 100%
- EC50 (SERT [9]): 39 ± 5 nM
- Emax (SERT [9]; read-out: SERT release Emax %): 103%

SMILES: CCCC(C(=O)c1ccc2c(c1)OCO2)N1CCCC1 (centres unmarked) [MDPV, 3,4-methylenedioxypyrovalerone]
- Self-administration by rats (rats [10]; i.v., 0.05, 0.1 or 0.2 mg/kg, ref Watterson et al., 2012): is readily self-administered by rats
- Drug-taking behavior with extended access (rats [10]; rats allowed extended access to the drug, ref Watterson et al., 2012): escalation of drug-taking behavior is observed
- Uptake blocking potency at DAT compared to cocaine (fold more potent) (DAT [5]; more potent than cocaine): 50 fold
- Uptake blocking potency at SERT compared to cocaine (fold less potent) (SERT [6]; less potent than cocaine): 10 fold
- Uptake blocking potency at NET compared to cocaine (fold more potent) (NET [7]; more potent than cocaine): 10 fold

SMILES: CNC(C)C(=O)c1ccc(C)cc1 (centres unmarked) [Mephedrone, 4-methylmethcathinone]
- Place preference in mice (mice [11]): engenders a positive place preference
- Self-administration by rats (rats [10]; i.v., 0.24 mg/infusion, ref Hadlock et al. (2011)): is self-administered by rats
- NET release Emax % (NET [1]): 99 ± 4%
- Brain stimulation reward thresholds (mice [3]): lowers brain stimulation reward thresholds
- Locomotor stimulant effects in mice (mice [12]): produces locomotor stimulant effects
- DAT release Emax % (DAT [13]): 102 ± 2%
- Rate of clearance compared to MDMA [14]: much faster rate of clearance when compared to MDMA
- Extracellular levels of dopamine and serotonin in rat nucleus accumbens [15]: increases extracellular levels of dopamine and serotonin
- SERT release Emax % (SERT [2]): 101 ± 1%
- Place preference in rats (rats [16]): engenders a positive place preference

SMILES: CNC(C)C(=O)c1ccc2c(c1)OCO2 (centres unmarked) [Methylone, 3,4-methylenedioxymethcathinone]
- Extracellular levels of dopamine and serotonin in rat nucleus accumbens [15]: increases extracellular levels of dopamine and serotonin
- SERT release Emax % (SERT [2]): 98 ± 2%
